Measured values as given in BigSolDB 2.1.

O=C(O)c1cccc(C(=O)O)c1
solubility (mole fraction)
Conditions | 283.15 K | 288.15 K | 293.15 K | 298.15 K | 303.15 K | 308.15 K | 313.15 K | 318.15 K | 323.15 K
in ethanol | 0.00328 | 0.00369 | 0.00406 | 0.00451 | 0.005 | 0.00559 | 0.00616 | 0.00682 | 0.00752
in methanol | 0.00269 | 0.00304 | 0.00342 | 0.00376 | 0.00422 | 0.00473 | 0.00527 | 0.0059 | 0.00654
in n-propanol | 0.00287 | 0.0032 | 0.00362 | 0.00415 | 0.00472 | 0.00533 | 0.00603 | 0.00689 | 0.00774
